Test results reported in article PMC6777076 (ACS Omega, 2019).

Target: T1, uridine nucleoside ribohydrolase (UNH) (Trichomonas vaginalis, UniProt A2FTT0)
T1 sequence (A2FTT0 1-347): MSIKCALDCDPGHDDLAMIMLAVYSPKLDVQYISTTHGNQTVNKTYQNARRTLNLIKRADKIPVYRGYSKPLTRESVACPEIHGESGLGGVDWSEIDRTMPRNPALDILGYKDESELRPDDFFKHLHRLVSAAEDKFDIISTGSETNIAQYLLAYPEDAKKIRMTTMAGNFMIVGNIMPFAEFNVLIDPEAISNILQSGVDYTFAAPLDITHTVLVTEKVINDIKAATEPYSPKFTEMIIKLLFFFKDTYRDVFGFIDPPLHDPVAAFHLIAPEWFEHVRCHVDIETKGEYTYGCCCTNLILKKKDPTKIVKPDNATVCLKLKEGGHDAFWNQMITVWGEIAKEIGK
Assay: 19F NMR-based activity assay
Type: biochemical
Conditions: from UNH potency and heavy atom count

| SMILES | LE (ligand efficiency) |
| --- | --- |
| CSc1nc2ccccc2[nH]1 [2-methylthiobenzimidazole] | 0.53 |
| COc1ccc2[nH]c([S+]([O-])Cc3ncc(C)c(OC)c3C)nc2c1 (centres unmarked) [omeprazole] | 0.36 |
